Test results from US7569563B2, “Substituted quinolones II” (AiCuris GmbH & Co. HK, priority 2005, dated 2009).
Where a name gives a salt, the structure may show the parent alone.

What was measured:
[1] = Cytostatic effects on NHDF cells in the anti-HCMV cytopathogenicity test; format: cell-based; conditions: human, human prepuce fibroblasts (NHDF cells); substance concentration at which no visible cytostatic effects on NHDF cells are evident vs untreated cell control; 6 days incubation
Method: (§1) Anti-HCMV (Anti-Human Cytomegalovirus) Cytopathogenicity Tests The test compounds are employed as 50 millimolar (mM) solutions in dimethyl sulfoxide (DMSO). Ganciclovir®, Foscamet® and Cidofovir® are used as reference compounds. After the addition of in each case 2 μl of the 50, 5, 0.5 and 0.05 mM DMSO stock solutions to 98 μl portions of cell culture medium in row […] for duplicate determinations, 1:2 dilutions are carried out with 50 μl portions of medium up to row 1 l of the 96-well plate. The wells in rows 1 and 12 each contain 50 μl of medium. 150 μl of a suspension of 1×10^4 cells (human prepuce fibroblasts [NHDF]) are then pipetted into each of the wells (row I=cell control) and, in rows 2-12, a mixture of HCMV-infected and uninfected NHDF cells (M.O.I.=0.001-0.002), i.e. 1-2 infected cells per 1000 uninfected cells. Row 12 (without substance) serves as virus control. The final test concentrations are 250-0.0005 μM. The plates are incubated at 37° C./5% CO2 for 6 days, i.e. until all the cells are infected in the virus controls (100% cytopathogenic effect [CPE]). The wells are then fixed and stained by the addition of a mixture of formalin and Giemsa's dye (30 minutes), washed with double-distilled water and dried in a drying oven at 50° C. The plates are then assessed visually using an overhead microscope (plaque multiplier from Technomara). The following data can be acquired from the test plates: CC50 (NHDF)=substance concentration in μM at which no visible cytostatic effects on the cells are evident compared with the untreated cell control;

[2] = tested on: HCMV; assay: Anti-HCMV (anti-human cytomegalovirus) cytopathogenicity test; format: cell-based; conditions: for EC50: Human betaherpesvirus 5, 144 h, concentration inhibiting CPE by 50% vs untreated virus control, HCMV-infected NHDF cells, M.O.I. 0.001-0.002, 6 days; for SI HCMV (selectivity index): SI = CC50 (NHDF)/EC50 (HCMV)
Method: as §1, with “plates: EC50 (HCMV)=substance” for “plates: CC50 (NHDF)=substance”, “μM” for “μM at”, “which inhibits” for “which no visible cytostatic effects on”, “the CPE (cytopathic effect) by 50%” for “the cells are evident”, “untreated virus” for “untreated cell”, “control; SI (selectivity index)=CC50 (NHDF)/EC50 (HCMV).” for “control;”

Structure (SMILES)	EC50 [2] [µM]	CC50 at 6 days [1] [µM]	SI HCMV (selectivity index) [2]
COc1c(N2C[C@@H](C)N(CC(=O)O)[C@@H](C)C2)c(F)cc2c(=O)c(C(=O)NCc3ccc(Cl)cc3Cl)cn(C3CC3)c12 [Example 29, 4-[3-{1-Cyclopropyl-[(2,4-dichlorobenzyl)amino]carbonyl}-1-fluoro-8-methoxy-4-oxo-1,4-dihydroquinolin-7-yl]-(2RS,6SR)-2,6-dimethylpiperazin-1-yl}ethanoic acid hydrochloride]	0.01	47	4700
CCOC(=O)CN1[C@H](C)CN(c2c(F)cc3c(=O)c(C(=O)NCc4ccc(Cl)cc4Cl)cn(CC(F)(F)F)c3c2OC)C[C@@H]1C [Example 1, Ethyl{(2RS,6SR)-4-[3-{[(2,4-dichlorobenzyl)amino]carbonyl}-6-fluoro-8-methoxy-4-oxo-1-(2,2,2-trifluoroethyl)-1,4-dihydroquinolin-7-yl]-2,6-dimethylpiperazin-1-yl}ethanoate hydroformate]	0.019	11	579
COc1c(N2C[C@@H](C)N(C(C)C(=O)O)[C@@H](C)C2)c(F)cc2c(=O)c(C(=O)NCc3ccc(Cl)cc3Cl)cn(C3CC3)c12 (stereo partly drawn) [Example 49]	0.018	94	5222

These reach a lower EC50 [2]. Values come first.

EC50 [2] [µM]	Structure (SMILES)	CC50 at 6 days [1] [µM]	SI HCMV (selectivity index) [2]
0.008	COc1c(N2C[C@@H](C)N(CC(=O)O)[C@@H](C)C2)c(F)cc2c(=O)c(C(=O)NCc3ccc(Cl)cc3Cl)cn(CCF)c12 [Example 30]	47	5875
0.005	COc1c(N2C[C@@H](C)N(CC(=O)O)[C@@H](C)C2)c(F)cc2c(=O)c(C(=O)NCc3ccc(Cl)cc3C)cn([C@H]3C[C@H]3F)c12 [Example 36]	24	6402
0.0023	COc1c(N2C[C@@H](C)N(CC(=O)O)[C@@H](C)C2)c(F)cc2c(=O)c(C(=O)NCc3ccc(Cl)cc3Cl)cn(CC(F)(F)F)c12 [Example 28, {(2RS,6SR)-4-[3-{[(2,4-Dichlorobenzyl)amino]carbonyl}-6-fluoro-8-methoxy-4-oxo-1-(2,2,2-trifluoroethyl)-1,4-dihydroquinolin-7-yl]-2,6-dimethylpiperazin-1-yl}ethanoic acid hydroformate]	18	8032
